From patent US20230227769A1, “Means and Methods to Improve Yeast Fermentation Efficiency” (VIB VZW, priority 2020, published 2023)

Tested on: 2G industrial yeast strains MD4 and T18
Assay: Fermentations in lignocellulose hydrolysates spiked with a range of inhibitor concentrations
Assay type: cell-based, S. cerevisiae
Details: five lignocellulose hydrolysates spiked with a range of inhibitor concentrations; both strains MD4 and T18
Description: The medium was spiked with different industrially relevant concentrations of (FIG. 1A, FIG. 1E) HMF, (FIG. 1B, FIG. 1F) furfural, (FIG. 1C, FIG. 1G) formic acid and (FIG. 1D, FIG. 1H) acetic acid.
As a first step in developing a yeast strain that can cope with the presence of fermentation inhibitors, the level of all relevant inhibitory compounds was measured in five different lignocellulose hydrolysates: two bagasse hydrolysates, two corn cob hydrolysates and one spruce hydrolysate (for composition see Table 2). Fermentations with two 2G industrial yeast strains, MD4 and T18, were performed using these hydrolysates spiked with a range of inhibitor concentrations.
After preculture of the yeast strains for 48 h at 30° C. with shaking at 200 rpm in YPD2% (10 g/l yeast extract, 20 g/l bacteriological peptone, 2% D-glucose) up to stationary phase, small-scale (10 ml) semi-anaerobic fermentations with MD4 and T18 were performed at pH 5.2, 35° C., shaking at 350 rpm, and a yeast inoculum OD 5.0. Weight loss of the fermentation tubes, which is correlated with CO2 production during conversion of glucose and xylose into ethanol, was measured continuously, or sampling at different timepoints was performed to analyse sugar and inhibitor concentrations by HPLC.

Compound | inhibitory effect on fermentation
O=Cc1ccc(O)cc1 [4-hydroxybenzaldehyde] | smaller inhibitory effect
O=C(O)c1ccc(O)cc1 [4-hydroxybenzoic acid] | smaller inhibitory effect
O=Cc1ccc(CO)o1 [HMF, 5-(hydroxymethyl)furfural] | major inhibitors
CC(=O)CCC(=O)O [Levulinic acid] | smaller inhibitory effect
CC(=O)O [acetic acid] | major inhibitors
O=CO [formic acid] | major inhibitors
O=Cc1ccco1 [furfural] | major inhibitors
COc1cc(C=O)ccc1O [vanillin] | smaller inhibitory effect
